Reference: patent US6420367B1, “Pyrimidine derivatives exhibiting antitumor activity” (Shionogo & Co., Ltd., priority 1998, dated 2002)
Values after ≈ are worked out from the molar mass of the structure shown.

Key:
[1] = test system: DT-C cells (pGV-P-transfected v-ki-ras-transformed NIH3T3 cells); assay: Luciferase activity in control DT-C cells (IC50-C): non-specific transcription-inhibitory effect or cytotoxicity; assay type: cell-based, mouse; details: tested concentration nearest to 50% inhibition in DT-C cells; index of non-specific transcription inhibition or cytotoxicity
Description: Test Example 1 Inhibitory Effect Against Cellular Signaling Derived From Ras Oncogene Products
1) Establishment of Cell Lines Used in Assay
Based on the reporter plasmid (pGV-P (Toyo Ink, Japan)), in which luciferase gene was ligated to SV40-derived minimal promoter, we constructed a plasmid designated pRRE3-luc by inserting 3 copies of chemically synthesized oligonucleotides (Sequence: CAGGATATGACTCT, derived from mouse NVL-3 (M. A. Reddy et al.(1992)Mol. Endocrinol., 6, 1051)) into upstream of the promoter. v-ki-ras-transformed NIH3T3 cells (DT cells, provided by Dr. Makoto Noda (Kyoto Univ., School of medicine)) were transfected with this plasmid by liposome-mediated transfection and transfected cell lines stably incorporated and maintained each plasmid were obtained. We named pGV-P and pRRE3-transfected cell line as DT-C and DT-R, respectively and used in the assay described below.
2) Preparation of Samples
i) All the cell lines were cultured in Dulbecco's Modified Essential Medium (DMEM: 10% Fetal Calf Serum(FCS: Hyclone, USA)) including […] kanamycin (Meiji Seika, Japan) in humidified incubator under condition of 5% CO2 at 37° C.
ii) DT-C and DT-R cells were seeded at 2500 cells/well into flat-bottom 96 well multiplate (Sumitomo bakelite) and incubated for 24 hours.
iii) Test compounds were prepared as 1 mg/ml DMSO solution.
iv) The solution of test compounds were added to the culture. Tested compounds are used at the concentration from […] to 0.51 ng/ml with by 3-fold dilution.
v) After 24 hours, the culture supernatant was completely aspirated and […] of cell-lysing solution (PGC-50 (Toyo Ink, Japan)) was added before cells were dried up. In order to the cells were lysed completely, multiwell plates were left at room temperature for 10 to 30 min. The plates were wrapped up and stored at −20° C. till the day of measurement.
3) Measurement of Samples
i) Melt the samples by putting 96 well multiplate at 37° C. and add 90 μl/well 25 mM Tris (pH 7.5).
ii) Transfer 50 μl of the sample (110 μl) to the 96 well microplate for measurement (Microlite 1 (Dynatech)).
iii) Measure the samples by the luminometer, LUMINOUS CT9000D (Dia-Yatron, Japan). We used Pickagene luminescence kit PGL2000 or LT2.0 (Toyo Ink, Japan) as substrates for luminescence measurement (50 μl/well).
4) Judgment of the Results
i) The luciferase activity of DT-C cells and DT-R cells were plotted in the graph where the relative activity and the compound concentration were expressed as Y-axis and X-axis, respectively. We judged by the degree of dissociation between the activities of DT-C cells and DT-R cells as an index.
ii) Concretely, efficacy of the compound was expressed by two values described below.
b) Among the points of concentration tested, the concentration which is the nearest to 50% inhibition concentration at DT-C cells (IC50-C), was shown as an index of non-specific transcription-inhibitory effect or of cytotoxicity. In case of positive compounds, 50% inhibition concentration above the area of active concentration in DT-C cells was expressed as IC50-C.

[2] = test system: DT-R cells (pRRE3-luc-transfected v-ki-ras-transformed NIH3T3 cells); signal derived from Ras oncogene products; assay: Inhibitory effect against cellular signaling derived from Ras oncogene products: luciferase reporter, dissociation of DT-R from DT-C activity (MAC); assay type: cell-based, mouse; details: minimal tested concentration at which luciferase activities of DT-C cells and DT-R cells dissociated
In short: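 DT-R (pRRE3-luc) and control DT-C (pGV-P) v-Ki-ras NIH3T3 cells were exposed 24 h to compound in 3-fold dilutions in DMEM/10% FCS at 37 °C, then lysed for luciferase luminescence. MAC is the lowest tested concentration at which DT-R and DT-C activities dissociate.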

human colon cancer HT29 = assay: In vitro cell growth inhibition test, MTT assay; assay type: cell-based; details: MTT assay 4 days after compound addition
In short: (§1)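 Growth inhibition was measured by MTT assay across a panel of human tumour cell lines that also included pancreatic cancer PANC-1.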

[3] = test system: human squamous lung cancer RERF-RC-AI; assay: In vitro cell growth inhibition test, MTT assay; assay type: cell-based; details: MTT assay 4 days after compound addition
In short: as §1

[4] = test system: human pancreas cancer PANC-1; assay: In vitro cell growth inhibition test, MTT assay; assay type: cell-based; details: MTT assay 4 days after compound addition
In short: as §1

[5] = test system: human squamous lung cancer Ma44; assay: In vitro cell growth inhibition test, MTT assay; assay type: cell-based; details: MTT assay 4 days after compound addition
In short: as §1

[6] = test system: human lung adenocarcinoma A549; assay: In vitro cell growth inhibition test, MTT assay; assay type: cell-based; details: MTT assay 4 days after compound addition
In short: as §1

| SMILES | IC50-C [1] [µg/mL] | MAC (Minimal Active Concentration) [2] [µg/mL] | IC50, HT29 (human colon cancer HT29) [µg/mL] | IC50, RERF-LC-AI [3] [µg/mL] | IC50, PANC-1 [4] [µg/mL] | IC50, Ma44 [5] [µg/mL] | IC50, A549 [6] [µg/mL] |
| --- | --- | --- | --- | --- | --- | --- | --- |
| CCNC(=Nc1nc(C)ncc1CSc1nnc(-c2ccc(Cl)cc2N)o1)NCC [Compound A-44] | 3.33 (≈ 7.45 µM) | <0.000508 | 0.0061 (≈ 0.0136 µM) | 0.0061 (≈ 0.0136 µM) | 0.16 (≈ 0.358 µM) | 0.018 (≈ 0.0403 µM) | – |
| CCNC(=Nc1nc(C)ncc1CSc1nnc(-c2ccc(F)cc2NC(C)=O)o1)NCC [Compound A-60] | >10 | <0.000508 | – | 0.004 (≈ 0.00846 µM) | 0.0039 (≈ 0.00825 µM) | 0.012 (≈ 0.0254 µM) | – |
| CCNC(=Nc1nc(C)ncc1CSc1nnc(-c2c(N)cccc2F)o1)NCC [Compound A-51] | 3.33 (≈ 7.73 µM) | 0.123 | 0.028 (≈ 0.065 µM) | 0.012 (≈ 0.0279 µM) | – | 0.088 (≈ 0.204 µM) | – |
| CCNC(=Nc1ncncc1CSc1nnc(-c2ccc(F)cc2)o1)NCC [Compound A-110] | >10 | 0.123 | 0.0077 (≈ 0.0192 µM) | 0.006 (≈ 0.0149 µM) | – | 0.063 (≈ 0.157 µM) | 0.042 (≈ 0.105 µM) |
| CCNC(=Nc1nc(C)ncc1CSc1nnc(-c2cccnc2N)o1)NCC [Compound D-1] | >10 | 1.11 | – | – | – | – | – |
| CCNC(=Nc1nc(C)ncc1CSc1nnc(-c2ccccc2NC(=O)CC)o1)NCC [Compound A-26] | >10 | 0.370 | – | 0.016 (≈ 0.0341 µM) | – | 0.055 (≈ 0.117 µM) | 0.06 (≈ 0.128 µM) |
| CCNC(=Nc1nc(C)ncc1CSc1nnc(-c2ccc(C)cc2N)o1)NCC [Compound A-63] | 3.33 (≈ 7.81 µM) | 0.0412 | – | 0.006 (≈ 0.0141 µM) | 0.0087 (≈ 0.0204 µM) | 0.053 (≈ 0.124 µM) | – |
| CCNC(=Nc1ncncc1CSc1nnc(-c2ccc(N)cc2)o1)NCCOC(C)=O [Compound A-112] | >10 | 1.11 | 0.064 (≈ 0.14 µM) | 0.023 (≈ 0.0504 µM) | – | 2 (≈ 4.38 µM) | 0.38 (≈ 0.832 µM) |
| CCCNC(=Nc1nc(C)ncc1CSc1nnc(-c2ccc(N)cc2)o1)NCCC.Cl.Cl [Compound A-160] | >10 | 0.0137 | – | – | – | – | – |
| CCNC(=Nc1nc(C)ncc1CSc1nnc(-c2ccc(N)cc2O)o1)NCC [Compound A-96] | >10 | 0.370 | – | – | – | – | – |
| CCNC(=Nc1ncncc1CSc1nnc(-c2ccsc2)o1)NCC [Compound D-21] | >10 | 0.37 | 0.016 (≈ 0.0411 µM) | 0.013 (≈ 0.0334 µM) | – | 0.35 (≈ 0.899 µM) | 0.049 (≈ 0.126 µM) |
| CCNC(=Nc1ncncc1CSc1nnc(-c2ccc(C(N)=S)cc2)o1)NCC [Compound A-123] | >10 | 1.11 | 0.041 (≈ 0.0926 µM) | 0.034 (≈ 0.0768 µM) | – | 0.09 (≈ 0.203 µM) | 0.15 (≈ 0.339 µM) |
| CCNC(=Nc1nc(C)ncc1CSc1nnc(-c2ccccc2N)o1)NCC [Compound A-24] | 3.33 (≈ 8.07 µM) | 0.0137 | – | 0.0071 (≈ 0.0172 µM) | – | 0.028 (≈ 0.0679 µM) | 0.026 (≈ 0.063 µM) |
| CCNC(=Nc1ncncc1CSc1nnc(-c2ccoc2)o1)NCC [Compound D-30] | >10 | 1.11 | 0.033 (≈ 0.0884 µM) | 0.046 (≈ 0.123 µM) | – | 2.4 (≈ 6.43 µM) | 0.1 (≈ 0.268 µM) |
| CCNC(=Nc1ncncc1CSc1nnc(-c2ccc(C)nc2)o1)NCC [Compound D-29] | >10 | 1.11 | 0.09 (≈ 0.226 µM) | 0.11 (≈ 0.276 µM) | – | 0.52 (≈ 1.3 µM) | 0.22 (≈ 0.552 µM) |
| CCNC(=Nc1ncncc1CSc1nnc(-c2ccc([N+](=O)[O-])cc2OC)o1)NCC [Compound A-124] | >10 | 0.0137 | 0.028 (≈ 0.0611 µM) | 0.022 (≈ 0.048 µM) | – | 0.024 (≈ 0.0523 µM) | 0.026 (≈ 0.0567 µM) |
| CCNC(=Nc1nc(C)ncc1CSc1nnc(-c2ccc(F)cc2N)o1)NCC [Compound A-49] | 3.33 (≈ 7.73 µM) | <0.000508 | 0.0028 (≈ 0.0065 µM) | 0.0016 (≈ 0.00372 µM) | – | 0.0032 (≈ 0.00743 µM) | – |
| CCCNC(=Nc1nc(C)ncc1CSc1nnc(-c2ccc([N+](=O)[O-])cc2)o1)NC.Cl [Compound A-164] | >10 | 0.0137 | – | – | – | – | – |
| CCNC(=Nc1nc(C)ncc1CSc1nnc(-c2ccc(Cl)cc2NC(C)=O)o1)NCC [Compound A-61] | >10 | <0.000508 | – | 0.0041 (≈ 0.00838 µM) | 0.0063 (≈ 0.0129 µM) | 0.016 (≈ 0.0327 µM) | – |
| CCNC(=Nc1nc(C)ncc1CSc1nnc(-c2ccc([N+](=O)[O-])cc2)o1)NC.Cl [Compound A-163] | >10 | 0.0137 | – | – | – | – | – |
| CCNC(=Nc1nc(C)ncc1CSc1nnc(-c2ccsc2NC(C)=O)o1)NCC [Compound D-36] | >10 | 0.0412 | 0.049 (≈ 0.106 µM) | 0.023 (≈ 0.0499 µM) | – | 0.065 (≈ 0.141 µM) | 0.032 (≈ 0.0695 µM) |
